Source: article PMC4759478, “Novel EGFR inhibitors attenuate cardiac hypertrophy induced by angiotensin II” (Journal of Cellular and Molecular Medicine, 2016)

How the values were obtained:
[1] = tested on: AngII-induced cardiac hypertrophy in C57BL/6 mice; test: Echocardiography and heart weight/bodyweight in AngII-induced cardiac hypertrophy mice; type: in vivo, mouse; conditions: AngII-treated C57BL/6 mice, 20 mg/kg/day for 2 weeks, n = 7
Experimental: Cardiac hypertrophy was induced in 6‐week‐old C57BL/6 mice by a […] subcutaneous injection of AngII (0.5 mg/kg/2 days for 2 weeks) in phosphate buffer (pH 7.2), as described previously 18. Mice in vehicle control group and Ang II group received 1% CMC‐Na solution alone in the same schedule as compound‐treated groups. Animals were killed under sodium pentobarbital anaesthesia. After mice was killed, heart tissues were embedded in 4% paraformaldehyde for pathological analysis and/or snap‐frozen in liquid nitrogen for gene and protein expression analysis. In addition, the blood was collected from the right ventricle using a heparin‐containing syringe with a needle at the time of death.
At the day before the sacrifice, Doppler analysis was performed to ensure that pathologic cardiac hypertrophy was induced. The internal diameter and wall thickness of left ventricle (LV) were assessed by echocardiography 19. Hearts of the killed mice were dissected and weighted to compare heart weight/bodyweight (mg/kg) ratios in mice. Mice was anaesthetized with isoflurane, echocardiography was performed by SONOS 5500 ultrasound (Philips Electronics, Amsterdam, the Netherlands) with a 15‐MHz linear array ultrasound transducer. The LV was assessed in both parasternal long‐axis and short‐axis views at a frame rate of 120 Hz. End‐systole or end‐diastole was defined as the phase in which the smallest or largest area of LV respectively. LV posterior wall (LVPW) and LV internal dimension (LVID) were measured from LV M‐model tracing with a sweep speed of 50 mm/sec. at the mid‐papillary muscle level.

[2] = tested on: EGFR signalling in H9c2 cells; conditions: 10 μM pre-treatment 2 hrs, EGF 100 ng/ml 15 min, Western blot
Experimental: (§1) Cells or heart tissues (30–50 mg) were lysated. […] Each PVDF membrane was incubated with specific antibodies.

[3] = tested on: EGFR signalling in H9c2 cells; test: Ang II-induced EGFR/AKT/ERK phosphorylation in H9c2 cells (Western blot); type: cell-based, rat; conditions: Ang II 1 μM 15 min
Experimental: as §1

[4] = tested on: H9c2 cells; test: EGF-induced hypertrophy of H9c2 cells (Western blot, RT-qPCR, immunofluorescence); type: cell-based, rat; conditions: pre-treatment 2 hrs (AG1478 10 μM; 542/543 1-10 μM), EGF 100 ng/ml 6 hrs (mRNA) or 12 hrs (MyHC)
Experimental: as §1

[5] = tested on: heart tissues of Ang II-treated C57BL/6 mice; test: Heart histopathology, Masson fibrosis staining, RT-qPCR and immunohistochemistry in Ang II-treated mice; type: in vivo, mouse; conditions: Ang II 2 weeks
Experimental: Cardiac hypertrophy was induced in 6-week-old C57BL/6 mice by a […] subcutaneous injection of AngII (0.5 mg/kg/2 days for 2 weeks) in phosphate buffer (pH 7.2), as described previously 18. Mice in vehicle control group and Ang II group received 1% CMC-Na solution alone in the same schedule as compound-treated groups. Animals were killed under sodium pentobarbital anaesthesia. After mice was killed, heart tissues were embedded in 4% paraformaldehyde for pathological analysis and/or snap-frozen in liquid nitrogen for gene and protein expression analysis. In addition, the blood was collected from the right ventricle using a heparin-containing syringe with a needle at the time of death. […] Hearts were fixed in 4% paraformaldehyde and embedded in paraffin. The paraffin sections (5 μm) were stained with haematoxylin and eosin. To estimate the extent of damage, the specimen was observed under a light microscope (×200 amplification; Nikon, Tokyo, Japan). After deparaffinization and rehydration, 5 μm heart sections were treated with 3% H2O2 for 30 min. and with 1% BSA in PBS for 30 min. Slides were incubated overnight at 4°C with primary antibody (1:50) then incubated with secondary antibody (1:100; Santa Cruz Biotech) for 1 hr and DAB (A: B = 1: 20) for 5 min. at room temperature. At last the cell nuclei were stained with haematoxylin for 5 min., the sections were dehydrated and the images were viewed by a light microscope (×200 amplification; Nikon). Tissues were fixed in paraformaldehyde solution and embedded in paraffin. Paraffin sections (5 μm) of the heart tissues were stained with Masson to evaluate the fibrosis content. The stained sections then were viewed by light microscope (×200 amplification; Nikon).

[6] = tested on: primary neonatal rat cardiomyocytes; test: Ang II-stimulated primary neonatal rat cardiomyocytes (Western blot, RT-qPCR); type: cell-based; conditions: 10 μM pre-treatment 2h, Ang II 1 μM 15min
Experimental: Cells were incubated with a DMEM medium that contained 5.5 mmol/L of D-glucose.
Figure S1. Effects of EGFR inhibitos in Ang II-stimulated primary neonatal rat cardiomyocytes. […] The cell lysates were collected and p-EGFR/EGFR (A) and p-AKT/p-ERK/GAPDH (B) were detected by Western Blot analysis. […] The cell lysates were collected and MyHC/GAPDH was detected by Western Blot analysis. […] The mRNA levels of ANP (D), β/α-MyHC (E), and SKA (F) were detected by RT-qPCR assay.

[7] = tested on: c-Src phosphorylation in H9c2 cells; test: Ang II-induced c-Src phosphorylation in H9c2 cells (Western blot); type: cell-based, rat; conditions: 10 μM pre-treatment 2 hrs, Ang II 1 μM 15 min
Experimental: as §1

For `COc1cc2ncnc(Nc3cccc(Cl)c3)c2cc1OC` [AG1478], the HR [1] was 345.83 ± 70.87, the “HW (mg)/BW (g)” value [1] was 5.68 ± 0.62 mg/g and the “LVIDd (diastole left ventricle internal dimension)” value [1] was 2.90 ± 0.26 mm. The “LVIDs (systolic left ventricle internal dimension)” value [1] was 1.57 ± 0.21 mm, the “LVPW (left ventricle posterior wall)” value [1] was 0.88 ± 0.03 mm and the VS [1] was 0.95 ± 0.02 mm. The “activation of EGFR and downstream signalling (EGFR, AKT, ERK phosphorylation) induced by EGF” value [2] was “inhibits”, the “activation of EGFR and downstream signalling (EGFR, AKT, ERK phosphorylation) induced by Ang II” value ([3]; AG1478 10 μM, 542/543 1, 2.5, 5 or 10 μM pre-treatment 2 hrs) was “inhibits” and the “EGF-induced overexpression of pro-hypertrophic genes (MyHC, ANP, BNP, β/α-MyHC, SKA)” value [4] was “significantly inhibited”. The “cardiac EGFR signalling pathway activation (p-EGFR, p-ERK, p-AKT immunohistochemical staining)” value ([5]; 20 mg/kg) was “significantly inhibited”, the “Ang II-induced increases in heart expression of hypertrophic genes ANP, BNP, β/α-MyHC, SKA (RT-qPCR)” value ([5]; AG1478 20 mg/kg/day, 542 at both dosages (5 and 20 mg/kg/day)) was “significantly blocked” and the “Ang II-induced heart structural abnormalities (haematoxylin and eosin staining)” value ([5]; daily treatment) was “significantly attenuated”. The “Ang II-increased phosphorylation of EGFR in primary cardiomyocytes” value [6] was “markedly reversed”.

With `CC(C)(C)n1nc(-c2ccc(Cl)cc2)c2c(N)ncnc21` [PP2] the “Ang II-induced phosphorylation of EGFR” value ([3]; PP2 10 μM pre-treatment 2 hrs) was “almost totally inhibited” and the “Ang II-induced phosphorylation of c-Src” value [7] was “almost totally inhibited”.
